Biological target: T1, β-amyloid (Aβ1-42) (Homo sapiens, UniProt P05067)
T1 construct: β-amyloid (Aβ1-42, AnaSpec Inc, USA) was obtained; purchased AnaSpec Inc, USA
Test: Beta-amyloid aggregation inhibition, fluorescence analysis (Thioflavin T assay)
Format: biochemical
Settings: compound 10 μM; for Increased RFU (amount of aggregated β-amyloid): Aβ1-42 0.1 mg/ml, 37° C., 150 minutes; for Increased RFU (% of Pos.Cont.): aggregated β-amyloid compared to the positive control (no compound) = 100; for decreased aggregation compared with the positive control: positive control taken as 100%
Method: The beta-amyloid aggregation inhibitory effect of quercetin 3-O-[3-O″-(E)-p-coumaroyl][β-D-glucopyranosyl-(1→3)-O-α-L-rhamnopyranosyl-(1→6)-O-β-D-glucopyranoside] and quercetin 3-O-[3-O″-(E)-p-coumaroyl][α-L-rhamnopyranosyl-(1→6)-O-β-D-glucopyranoside] was determined by fluorescence analysis (Thioflavin T assay). Specifically, β-amyloid (Aβ1-42, AnaSpec Inc, USA) was obtained and used at a concentration of 0.1 mg/ml. It was stored at −80° C. prior to use. Each of morin (20 μM), phenol red (20 μM), quercetin 3-O-[3-O″-(E)-p-coumaroyl][β-D-glucopyranosyl-(1→3)-O-α-L-rhamnopyranosyl-(1→6)-O-β-D-glucopyranoside] (1 mg/ml), and quercetin 3-O-[3-O″-(E)-p-coumaroyl][α-L-rhamnopyranosyl-(1→6)-O-β-D-glucopyranoside] (1 mg/ml) was diluted to these concentrations in DMSO. In order to determine the degree of inhibition of Aβ1-42 aggregation, each compound at the above concentration was diluted to 10 μM in 50 μL of 0.01 M sodium phosphate buffer solution. Then, 40 μL of 0.1 mg/ml Aβ1-42 was added thereto, followed by addition of 10 μL of 2 mM Thioflavin T. The fluorescence was then measured with a fluorescence spectrometer (RF-5300PC, SHIMADZU CORPORATION, Japan) at 37° C. and intervals of 5 minutes for 150 minutes. In the table above, “RFU” denotes relative fluorescence unit, and “increased RFU” indicates the amount of aggregated β-amyloid. “Increased RFU (% of Pos.Cont.)” indicates the percentage of aggregated β-amyloid compared to the positive control. “Novel substance 31” indicates quercetin 3-O-[3-O″-(E)-p-coumaroyl][β-D-glucopyranosyl-(1→3)-O-α-L-rhamnopyranosyl-(1→6)-O-β-D-glucopyranoside], and “novel substance 32” indicates quercetin 3-O-[3-O″-(E)-p-coumaroyl][α-L-rhamnopyranosyl-(1→6)-O-β-D-glucopyranoside].

T1 sequence (P05067 672-713 limits assumed): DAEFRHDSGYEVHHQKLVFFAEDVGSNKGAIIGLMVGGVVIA

Structure (SMILES) | Increased RFU (amount of aggregated β-amyloid) | Increased RFU (% of Pos.Cont.) | decreased aggregation compared with the positive control
CC1OC(OCC2OC(Oc3c(-c4ccc(O)c(O)c4)oc4cc(O)cc(O)c4c3=O)C(O)C(OC(=O)/C=C/c3ccc(O)cc3)C2O)C(O)C(OC2OC(CO)C(O)C(O)C2O)C1O [Novel substance 31, quercetin 3-O-[3-O″-(E)-p-coumaroyl][β-D-glucopyranosyl-(1→3)-O-α-L-rhamnopyranosyl-(1→6)-O-β-D-glucopyranoside]] | 12955 RFU | 88.8% | 11.2%
CC1OC(OCC2OC(Oc3c(-c4ccc(O)c(O)c4)oc4cc(O)cc(O)c4c3=O)C(O)C(OC(=O)/C=C/c3ccc(O)cc3)C2O)C(O)C(O)C1O [Novel substance 32, quercetin 3-O-[3-O″-(E)-p-coumaroyl][α-L-rhamnopyranosyl-(1→6)-O-β-D-glucopyranoside]] | 12148 RFU | 83.2% | 16.8%
